Test results taken from patent publication US8597875B2, “Method for diagnosing liver toxicity with sex specific biomarkers” (BASF SE, priority 2008, dated 2013).

How the values were obtained:
male rats = test: Plasma metabolite profiling (GC-MS/LC-MS) for liver toxicity markers, 28-day gavage study, male rats; type: in vivo, rat; conditions: male rats
Method: (§1) A group of each 5 male and female rats was dosed once daily with the indicated compounds (see tables below) at 10 and 100 mg/kg body weight per gavage over 28 days. Additional groups of each 5 male and female animals served as controls. Before starting the treatment period, animals, which were 62-64 days old when supplied, were acclimatized to the housing and environmental conditions for 7 days. All animals of the animal population were kept under the same constant temperature (20-24±3° C.) and the same constant humidity (30-70%). Each animal of the animal population was kept in a separate cage. The animals of the animal population are fed ad libitum. The food to be used was be essentially free of chemical or microbial contaminants. Drinking water was also offered ad libitum. Accordingly, the water was be free of chemical and microbial contaminants as laid down in the European Drinking Water Directive 98/83/EG. The illumination period was 12 hours light followed by 12 hours darkness (12 hours light, from 6:00 to 18:00, and 12 hours darkness, from 18:00 to 6:00).
(§2) In the morning of day 7, 14, and 28, blood was taken from the retroorbital venous plexus from fasted anaesthetized animals. From each animal, 1 ml of blood was collected with EDTA as anticoagulant. The samples were be centrifuged for generation of plasma. All plasma samples were covered with a N2 atmosphere and then stored at −80° C. until analysis.
(§3) For mass spectrometry-based metabolite profiling analyses plasma samples were extracted and a polar and a non-polar fraction was obtained. For GC-MS analysis, the non-polar fraction was treated with methanol under acidic conditions to yield the fatty acid methyl esters. Both fractions were further derivatised with O-methyl-hydroxyamine hydrochloride and pyridine to convert Oxo-groups to O-methyloximes and subsequently with a silylating agent before analysis. In LC-MS analysis, both fractions were reconstituted in appropriate solvent mixtures. HPLC was performed by gradient elution on reversed phase separation columns. For mass spectrometric detection metanomics proprietary technology was applied which allows target and high sensitivity MRM (Multiple Reaction Monitoring) profiling in parallel to a full screen analysis.
(§4) Following comprehensive analytical validation steps, the data for each analyte were normalized against data from pool samples. These samples were run in parallel through the whole process to account for process variability. The significance of treatment group values specific for sex, dose group and metabolite was determined by comparing means of the treated groups to the means of the respective untreated control groups using WELCH-test. Normalized treatment group values and their significance were fed into a database for further statistics and data mining processes.
(§5) The changes of the group of plasma metabolites being indicative for liver toxicity after treatment of the rats are shown in the following tables: […]

female rats = test: Plasma metabolite profiling (GC-MS/LC-MS) for liver toxicity markers, 28-day gavage study, female rats; type: in vivo, rat; conditions: female rats, fh7 (day 7)
Method: as §1, §2, §3, §4, §5

## C1CCOC1 [Tetrahydrofuran]
Male rats; mh7 (day 7)
  1,2-Dioleoyl-sn-glycero-3-phosphatidyl-L-serine, change of plasma metabolite: 1.70
  4-Hydroxysphingosine, change of plasma metabolite: 2.67
  Arachidonic acid (C20:cis-[5,8,11,14]4), change of plasma metabolite: 1.71
  Behenic acid (C22:0), change of plasma metabolite: 1.35
  Ceramide (d18:1, C24:0), change of plasma metabolite: 1.37
  Ceramide (d18:1, C24:1), change of plasma metabolite: 1.53
  Cholesterol, change of plasma metabolite: 1.81
  Docosahexaenoic acid (C22:cis[4,7,10,13,16,19]6), change of plasma metabolite: 2.52
  Eicosatrienoic acid, change of plasma metabolite: 3.13
  Glycerolphosphate, lipid fraction, change of plasma metabolite: 1.94
  Heptadecanoic acid (C17:0), change of plasma metabolite: 1.52
  Lignoceric acid (C24:0), change of plasma metabolite: 1.62
  Linoleic acid (C18:cis[9,12]2), change of plasma metabolite: 1.52
  Nervonic acid (C24:1), change of plasma metabolite: 1.88
  Palmitic acid (C16:0), change of plasma metabolite: 1.48
  Phosphatidylcholine (C18:0/C22:6), change of plasma metabolite: 1.83
  Phosphatidylcholine (C18:2, C20:4), change of plasma metabolite: 1.52
  Sphingomyelin (d18:1, C16:0), change of plasma metabolite: 1.46
  Tricosanoic acid (C23:0), change of plasma metabolite: 1.51
  alpha-Tocopherol, change of plasma metabolite: 2.61
  myo-Inositol-2-monophosphate, lipid fraction, change of plasma metabolite: 1.70
Male rats; mh14 (day 14)
  1,2-Dioleoyl-sn-glycero-3-phosphatidyl-L-serine, change of plasma metabolite: 1.81
  4-Hydroxysphingosine, change of plasma metabolite: 2.56
  Arachidonic acid (C20:cis-[5,8,11,14]4), change of plasma metabolite: 1.64
  Behenic acid (C22:0), change of plasma metabolite: 1.77
  Ceramide (d18:1, C24:0), change of plasma metabolite: 1.55
  Ceramide (d18:1, C24:1), change of plasma metabolite: 1.48
  Cholesterol, change of plasma metabolite: 1.98
  Docosahexaenoic acid (C22:cis[4,7,10,13,16,19]6), change of plasma metabolite: 2.37
  Eicosatrienoic acid, change of plasma metabolite: 3.76
  Glycerolphosphate, lipid fraction, change of plasma metabolite: 1.93
  Heptadecanoic acid (C17:0), change of plasma metabolite: 1.54
  Lignoceric acid (C24:0), change of plasma metabolite: 1.71
  Linoleic acid (C18:cis[9,12]2), change of plasma metabolite: 1.46
  Nervonic acid (C24:1), change of plasma metabolite: 1.87
  Palmitic acid (C16:0), change of plasma metabolite: 1.49
  Phosphatidylcholine (C18:0/C22:6), change of plasma metabolite: 1.71
  Phosphatidylcholine (C18:2, C20:4), change of plasma metabolite: 1.46
  Sphingomyelin (d18:1, C16:0), change of plasma metabolite: 1.45
  Tricosanoic acid (C23:0), change of plasma metabolite: 1.74
  alpha-Tocopherol, change of plasma metabolite: 2.23
  myo-Inositol-2-monophosphate, lipid fraction, change of plasma metabolite: 2.40
Male rats; mh28 (day 28)
  1,2-Dioleoyl-sn-glycero-3-phosphatidyl-L-serine, change of plasma metabolite: 1.84
  4-Hydroxysphingosine, change of plasma metabolite: 2.64
  Arachidonic acid (C20:cis-[5,8,11,14]4), change of plasma metabolite: 1.76
  Behenic acid (C22:0), change of plasma metabolite: 1.65
  Ceramide (d18:1, C24:0), change of plasma metabolite: 1.40
  Ceramide (d18:1, C24:1), change of plasma metabolite: 1.18
  Cholesterol, change of plasma metabolite: 2.03
  Docosahexaenoic acid (C22:cis[4,7,10,13,16,19]6), change of plasma metabolite: 2.02
  Eicosatrienoic acid, change of plasma metabolite: 3.77
  Glycerolphosphate, lipid fraction, change of plasma metabolite: 2.15
  Heptadecanoic acid (C17:0), change of plasma metabolite: 1.51
  Lignoceric acid (C24:0), change of plasma metabolite: 1.57
  Linoleic acid (C18:cis[9,12]2), change of plasma metabolite: 1.50
  Nervonic acid (C24:1), change of plasma metabolite: 1.97
  Palmitic acid (C16:0), change of plasma metabolite: 1.36
  Phosphatidylcholine (C18:0/C22:6), change of plasma metabolite: 1.32
  Phosphatidylcholine (C18:2, C20:4), change of plasma metabolite: 1.18
  Sphingomyelin (d18:1, C16:0), change of plasma metabolite: 1.39
  Tricosanoic acid (C23:0), change of plasma metabolite: 1.55
  alpha-Tocopherol, change of plasma metabolite: 2.15
  myo-Inositol-2-monophosphate, lipid fraction, change of plasma metabolite: 2.70
Female rats
  1,2-Dioleoyl-sn-glycero-3-phosphatidyl-L-serine, change of plasma metabolite: 1.49
  4-Hydroxysphinganine, change of plasma metabolite: 1.98
  Arachidonic acid (C20:cis-[5,8,11,14]4), change of plasma metabolite: 1.85
  Behenic acid (C22:0), change of plasma metabolite: 1.52
  Ceramide (d18:1, C24:0), change of plasma metabolite: 1.85
  Cholesterol, change of plasma metabolite: 2.18
  Docosahexaenoic acid (C22:cis[4,7,10,13,16,19]6), change of plasma metabolite: 3.22
  Glycerol, lipid fraction, change of plasma metabolite: 1.89
  Glycerolphosphate, lipid fraction, change of plasma metabolite: 1.77
  Heptadecanoic acid (C17:0), change of plasma metabolite: 1.72
  ID28x493, change of plasma metabolite: 2.44
  Lignoceric acid (C24:0), change of plasma metabolite: 1.59
  Linoleic acid (C18:cis[9,12]2), change of plasma metabolite: 2.43
  Nervonic acid (C24:1), change of plasma metabolite: 1.54
  Palmitic acid (C16:0), change of plasma metabolite: 1.97
  Phosphate, lipid (Phospholipids), change of plasma metabolite: 1.37
  Stearic acid (C18:0), change of plasma metabolite: 1.60
  TAG No 1, change of plasma metabolite: 1.66
  Threonic acid, change of plasma metabolite: 1.92
  Tricosanoic acid (C23:0), change of plasma metabolite: 1.80
